Data on 3 compounds can be found in paper PMC2794939 (Biochemistry, 2009).

Some targets named below: A/M2-V27A/L38F (Influenza A virus, UniProt P0DOF5, L38F/V27A); A/M2-S31N (Influenza A virus, UniProt P0DOF5, S31N); A/M2-V27G (Influenza A virus, UniProt P0DOF5, V27G); A/M2-G34E (Influenza A virus, UniProt P0DOF5, G34E); A/M2-L26F (Influenza A virus, UniProt P0DOF5, L26F); A/M2-A30T (Influenza A virus, UniProt P0DOF5, A30T).
Holding throughout (type): cell-based, Influenza virus A/Udorn/72
A further test addresses A/M2-V27A (Influenza A virus, UniProt P0DOF5, V27A). Particulars: for inhibition of the mutant: 100 µM.

Turning to `NC12CC3CC(CC(C3)C1)C2` [Amantadine, amantadine], on A/M2-V27A/L38F, the “sensitivity of the double mutant channel” value was “not sensitive”. Besides, the “inhibition of the mutant” value against A/M2-V27A is listed as “less than 10%”.

Broadly, the IC50 is the concentration that inhibits the measured activity by half. `C1CCC2(CC1)CCN(C1=NCCN1)CC2` [BL-1743, 2-[3-azaspiro([5],[5])undecanol]-2-imidazoline]: the “% remaining activity after application of 100 μM compound” value on A/M2-S31N is reported as 100±0.67%; on A/M2-V27G, 82.9±9.3%; at A/M2-G34E it was 89.8±6.9%; on A/M2-L26F, 89.2±4.8%; at A/M2-V27A it was 97.4±1.8%; at A/M2-A30T, 102±2.3%. For the same compound, the IC50 against A/M2-S31N, against A/M2-L26F and on A/M2-V27A was greater than 10 mM throughout. In addition, on A/M2-V27A/L38F, the “sensitivity of the double mutant channel” value is reported as “not sensitive”. Moreover, at A/M2-V27A, the “inhibition of the mutant” value is reported as “less than 10%”.

As to `NC1CCC2(CCCCC2)CC1` [Compound 8, spiro[5.5]undecan-3-amine], the “% remaining activity after application of 100 μM compound” value on A/M2-S31N is on record as 99.1±0.9%; on A/M2-V27G, 87.9±6.1%; on A/M2-L26F it was 32.4±3.3%; at A/M2-V27A, 46.6±6.6%; at A/M2-A30T, 98.1±7.0%. Besides, the “inhibition of the mutant” value against A/M2-S31N was “little inhibition”.
